Values of other authors as cited in patent publication US6887894B2, “Use of lipoic acid for improving the bioavailability of mineral salts” (BASF Aktiengesellschaft, priority 2000, dated 2005).

Tests used:
[1] = in vivo; cited from earlier work
[2] = in vivo; cited from earlier work; remark: listed apart in the source
[3] = pigs; cited from earlier work
[4] = growing rats, suboptimal Zn supply, 1% citric acid added to phytic-acid-rich corn-germ-based diets; cited from earlier work
[5] = in vivo; cited from earlier work; remark: listed apart in the source

Question: Which “effect on bioavailability of dietary zinc” value [1] does the source give for `O=C1O[C@H]([C@@H](O)CO)C(O)=C1O` [Ascorbic acid] here?
Answer: does not change

Question: And the “effect on bioavailability of inorganic iron” value [2]?
Answer: increases

Question: Which results are given for `O=C(O)CC(O)(CC(=O)O)C(=O)O` [citric acid]?
Answer: effect on Zn utilization [3]: positive effects; Zn status (plasma Zn concentration, alkaline phosphatase activity, metallothioneine concentration in the jejunum) [4]: moderate improvement

Question: With `CCC(=O)[O-].CCC(=O)[O-].[Zn+2]` [zinc propionate] as the compound, how does the “bioavailability of Zn2+ from organic or inorganic sources” value [5] read?
Answer: roughly comparable
